Source: patent US6737383B1, “Herbicidal oxadiazolidines” (priority 1999, dated 2004)

Legend:
wheat = test: Test B pre/postemergence wheat; assay type: in vivo, Triticum aestivum
Method in brief: (§1)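 Response is a visual 0-to-10 score relative to untreated plants, where 0 means no effect and 10 means complete control, taken twelve to sixteen days after application. Treatments went onto soil at planting and onto foliage of 1- to 4-leaf plants, using a surfactant-containing non-phytotoxic solvent.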

pigweed = test: Test B pre/postemergence pigweed; assay type: in vivo, Amaranthus retroflexus
Method in brief: as §1

purple nutsedge = test: Test B pre/postemergence purple nutsedge; assay type: in vivo, Cyperus rotundus
Method in brief: as §1

smallflower flatsedge = test: Test B flood test smallflower flatsedge; assay type: in vivo, Cyperus difformis
Method in brief: (§2)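 Plants were grown to the 2-leaf stage before treatment with test chemical, then held in a greenhouse for twelve to sixteen days. Injury was visually rated against untreated controls on a 0–10 scale, where 0 is no effect and 10 is complete control.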

soybean = test: Test B pre/postemergence soybean; assay type: in vivo, Glycine max
Method in brief: as §1

blackgrass = test: Test B pre/postemergence blackgrass; assay type: in vivo, Alopecurus myosuroides
Method in brief: as §1

velvetleaf = test: Test B pre/postemergence velvetleaf; assay type: in vivo, Abutilon theophrasti
Method in brief: as §1

rape = test: Test B pre/postemergence rape; assay type: in vivo, Brassica napus
Method in brief: as §1

sugar beet = test: Test B pre/postemergence sugar beet; assay type: in vivo, Beta vulgaris
Method in brief: as §1

duck salad = test: Test B flood test duck salad; assay type: in vivo, Heteranthera limosa
Method in brief: as §2

rice = test: Test B flood test rice; assay type: in vivo, Oryza sativa
Method in brief: as §2

bedstraw = test: Test B pre/postemergence bedstraw; assay type: in vivo, Galium aparine
Method in brief: as §1

corn = test: Test B pre/postemergence corn; assay type: in vivo, Zea mays
Method in brief: as §1

wild oat = test: Test B pre/postemergence wild oat; assay type: in vivo, Avena fatua
Method in brief: as §1

surinam grass = test: Test B pre/postemergence surinam grass; assay type: in vivo, Brachiaria decumbens
Method in brief: as §1

crabgrass = test: Test B pre/postemergence crabgrass; assay type: in vivo, Digitaria sanguinalis
Method in brief: as §1

[1] = Postemergence, Rate 62 g/ha, scale 0 to 10, 0 is no effect, 10 is complete control
[2] = Postemergence, Rate 125 g/ha, scale of 0 to 10 where 0 is no effect and 10 is complete control
[3] = Postemergence, Rate 250 g/ha, scale of 0 to 10, 0 is no effect, 10 is complete control
[4] = Preemergence, Rate 62 g/ha, scale 0 to 10 (0 no effect, 10 complete control)
[5] = Preemergence, Rate 125 g/ha, scale of 0 to 10 where 0 is no effect and 10 is complete control
[6] = Preemergence, Rate 250 g/ha, scale 0 to 10 (0 no effect, 10 complete control)
[7] = Preemergence, Rate 500 g/ha, scale of 0 to 10 where 0 is no effect and 10 is complete control
[8] = Postemergence, Rate 500 g/ha, scale of 0 to 10 where 0 is no effect and 10 is complete control
[9] = Rate 62 g/ha, flood test species, Pre-emergence, visual evaluation after twelve to sixteen days
[10] = Rate 125 g/ha, under heading Pre-emergence, flood test species, visual evaluation after twelve to sixteen days
[11] = Rate 250 g/ha, Pre-emergence (flood test species), scale 0 to 10, 0 is no effect, 10 is complete control
[12] = Rate 500 g/ha, Pre-emergence section of Table B, 0 to 10 scale (0 no effect, 10 complete control)

CC(C)N(C(=O)n1oc(=O)n(CNC(=O)c2ccccc2)c1=O)c1ccc(F)cc1F [Compound 619]
4: Plant response rating, Velvetleaf (velvetleaf; [7])
8: Plant response rating, Crabgrass (crabgrass; [7])
1: Redroot pigweed plant response rating (pigweed; [3]) | Plant response rating, Soybean (soybean; [1]) | Plant response rating, Soybean (soybean; [2]) | Soybean plant response rating (soybean; [3]) | Crabgrass plant response rating (crabgrass; [5])
3: Plant response rating, Rape (rape; [8]) | B. signalgrass plant response rating (surinam grass; [7])
6: Plant response rating, Crabgrass (crabgrass; [6])
0: Plant response rating, Wheat (wheat; [1]) | Plant response rating, Wheat (wheat; [2]) | Wheat plant response rating (wheat; [3]) | Wheat plant response rating (wheat; [4]) | Wheat plant response rating (wheat; [5]) | Plant response rating, Wheat (wheat; [6]) | Plant response rating, Wheat (wheat; [7]) | Plant response rating, Redroot pigweed (pigweed; [1]) | Plant response rating, Redroot pigweed (pigweed; [2]) | Redroot pigweed plant response rating (pigweed; [4]) | Redroot pigweed plant response rating (pigweed; [5]) | Plant response rating, Redroot pigweed (pigweed; [6]) | Plant response rating, Redroot pigweed (pigweed; [7]) | Plant response rating, Nutsedge (purple nutsedge; [1]) | Plant response rating, Nutsedge (purple nutsedge; [2]) | Nutsedge plant response rating (purple nutsedge; [3]) | Plant response rating, Nutsedge (purple nutsedge; [8]) | Nutsedge plant response rating (purple nutsedge; [4]) | Nutsedge plant response rating (purple nutsedge; [5]) | Plant response rating, Nutsedge (purple nutsedge; [6]) | Plant response rating, S. Flatsedge (0 to 10 scale, 0 is no effect, 10 is complete control) (smallflower flatsedge; [9]) | S. Flatsedge plant response rating (0 to 10 scale, 0 is no effect, 10 is complete control) (smallflower flatsedge; [10]) | S. Flatsedge plant response rating (smallflower flatsedge; [11]) | S. Flatsedge plant response rating (smallflower flatsedge; [12]) | Soybean plant response rating (soybean; [4]) | Soybean plant response rating (soybean; [5]) | Plant response rating, Soybean (soybean; [6]) | Plant response rating, Soybean (soybean; [7]) | Plant response rating, Blackgrass (blackgrass; [1]) | Plant response rating, Blackgrass (blackgrass; [2]) | Blackgrass plant response rating (blackgrass; [3]) | Plant response rating, Blackgrass (blackgrass; [8]) | Blackgrass plant response rating (blackgrass; [4]) | Blackgrass plant response rating (blackgrass; [5]) | Plant response rating, Blackgrass (blackgrass; [6]) | Blackgrass plant response rating (blackgrass; [7]) | Plant response rating, Velvetleaf (velvetleaf; [1]) | Plant response rating, Velvetleaf (velvetleaf; [2]) | Velvetleaf plant response rating (velvetleaf; [4]) | Velvetleaf plant response rating (velvetleaf; [5]) | Plant response rating, Velvetleaf (velvetleaf; [6]) | Plant response rating, Rape (rape; [1]) | Plant response rating, Rape (rape; [2]) | Rape plant response rating (rape; [3]) | Rape plant response rating (rape; [4]) | Rape plant response rating (rape; [5]) | Plant response rating, Rape (rape; [6]) | Plant response rating, Rape (rape; [7]) | Plant response rating, Sugarbeets (sugar beet; [1]) | Plant response rating, Sugarbeets (sugar beet; [2]) | Sugarbeets plant response rating (sugar beet; [3]) | Sugarbeets plant response rating (sugar beet; [4]) | Sugarbeets plant response rating (sugar beet; [5]) | Plant response rating, Sugarbeets (sugar beet; [6]) | Plant response rating, Sugarbeets (sugar beet; [7]) | Plant response rating, Ducksalad (0 to 10 scale, 0 is no effect, 10 is complete control) (duck salad; [9]) | Ducksalad plant response rating (0 to 10 scale, 0 is no effect, 10 is complete control) (duck salad; [10]) | Ducksalad plant response rating (duck salad; [11]) | Ducksalad plant response rating (duck salad; [12]) | Plant response rating, Rice (0 to 10 scale, 0 is no effect, 10 is complete control) (rice; [9]) | Rice plant response rating (0 to 10 scale, 0 is no effect, 10 is complete control) (rice; [10]) | Rice plant response rating (rice; [11]) | Rice plant response rating (rice; [12]) | Plant response rating, Bedstraw (bedstraw; [1]) | Bedstraw plant response rating (bedstraw; [3]) | Plant response rating, Bedstraw (bedstraw; [6]) | Bedstraw plant response rating (bedstraw; [7]) | Plant response rating, Corn (corn; [1]) | Plant response rating, Corn (corn; [2]) | Corn plant response rating (corn; [3]) | Plant response rating, Corn (corn; [8]) | Corn plant response rating (corn; [4]) | Corn plant response rating (corn; [5]) | Plant response rating, Corn (corn; [6]) | Plant response rating, Wild oats (wild oat; [1]) | Plant response rating, Wild oats (wild oat; [2]) | Wild oats plant response rating (wild oat; [3]) | Wild oats plant response rating (wild oat; [4]) | Wild oats plant response rating (wild oat; [5]) | Plant response rating, Wild oats (wild oat; [6]) | Plant response rating, Wild oats (wild oat; [7]) | Plant response rating, B. signalgrass (surinam grass; [1]) | Plant response rating, B. signalgrass (surinam grass; [2]) | B. signalgrass plant response rating (surinam grass; [3]) | B. signalgrass plant response rating (surinam grass; [4]) | B. signalgrass plant response rating (surinam grass; [5]) | Plant response rating, B. signalgrass (surinam grass; [6]) | Plant response rating, Crabgrass (crabgrass; [1]) | Plant response rating, Crabgrass (crabgrass; [2]) | Crabgrass plant response rating (crabgrass; [3]) | Crabgrass plant response rating (crabgrass; [4])
2: Velvetleaf plant response rating (velvetleaf; [3]) | Plant response rating, Corn (corn; [7]) | Plant response rating, B. signalgrass (surinam grass; [8]) | Plant response rating, Crabgrass (crabgrass; [8])
